Results as given in BindingDB's records for doi:10.7270/Q2PR7TCX (The Scripps Research Institute Molecular Screening Center, 2007).

The compounds below were run against Steroidogenic factor 1 (Homo sapiens, UniProt Q13285) (assay: inhibition of SF-1 LBD-driven luciferase – cell-based, CHO-K1, Gal4-SF-1 LBD, luciferase luminescence, counter-screen for RORA inhibitor project, dose response (AID 611)). Details: not given.
Steroidogenic factor 1, sequence (Q13285 whole entry, the tested form may be a part): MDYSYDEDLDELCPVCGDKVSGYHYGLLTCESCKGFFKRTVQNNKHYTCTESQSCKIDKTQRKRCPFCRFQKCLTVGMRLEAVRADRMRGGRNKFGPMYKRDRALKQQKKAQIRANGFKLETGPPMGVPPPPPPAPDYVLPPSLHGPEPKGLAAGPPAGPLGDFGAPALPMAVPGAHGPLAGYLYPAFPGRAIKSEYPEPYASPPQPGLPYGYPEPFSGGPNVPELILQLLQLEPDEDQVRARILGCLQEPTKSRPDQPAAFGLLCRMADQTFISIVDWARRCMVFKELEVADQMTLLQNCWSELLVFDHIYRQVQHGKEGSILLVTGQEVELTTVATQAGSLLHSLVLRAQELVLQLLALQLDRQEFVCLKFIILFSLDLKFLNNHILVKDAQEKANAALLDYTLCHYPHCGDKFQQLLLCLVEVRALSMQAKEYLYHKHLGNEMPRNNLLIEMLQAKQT

Compound	IC50
Cc1ccc(-c2nnc(Nc3ccccc3)o2)cc1 [5-(4-methylphenyl)-N-phenyl-1,3,4-oxadiazol-2-amine]	> 3.67 µM
CCOC(=O)CS(=O)(=O)c1nc(-c2ccccc2)cc(C(F)(F)F)n1 [2-[4-phenyl-6-(trifluoromethyl)pyrimidin-2-yl]sulfonylacetic acid ethyl ester]	9.74 µM
c1ccc2nc(-c3nc4ccccc4[nH]3)ccc2c1 [SMR000008748]	7.19 µM
O=C(Nc1nc2ccccc2[nH]1)c1ccccc1F [N-1,3-dihydro-2H-benzimidazol-2-ylidene-2-fluorobenzamide]	1.91 µM
COC(=O)/C(=C1/Oc2cc(C)oc(=O)c2S1)C(F)(F)F [methyl (2E)-3,3,3-tris(fluoranyl)-2-(6-methyl-4-oxidanylidene-[1,3]oxathiolo[4,5-c]pyran-2-ylidene)propanoate]	4.32 µM
O=C(Nc1ccc(N2CCOCC2)cc1)c1cnsn1 [MLS000063695]	6.57 µM

Same assay, conditions: inactive by the depositor's call

Compound	IC50
N#C/C(=C/c1ccc(N2CCCCCC2)o1)c1ccc(F)cc1 [MLS000051438]	18.5 µM
